Experimental data as given in patent US8802114B2, “Pharmaceutical compositions of iron for oral administration” (priority 2011, dated 2014).

What was measured:
[1] = Sodium caprate (C10) solution compatibility of iron compounds, with centrifugation test for precipitation; format: physicochemical; details: in 55 mg/mL sodium caprate (C10)
Description: A test for precipitation was carried out. The solution formulations were centrifuged initially at 1000 rpm for 5 minutes. […] They were further centrifuged at 5000 rpm for 5 minutes.

[2] = Solution stability of sodium EDTA Fe+3 chelate with sodium caprate (visual observation); format: physicochemical; details: sodium caprate 55 mg/mL

| Molecule | Sodium caprate solution compatibility (observation) [1] | Compatibility with sodium caprate formulation (pre-formulation) [2] |
| --- | --- | --- |
| NCC(=O)[O-].NCC(=O)[O-].[Fe+2] [Ferrous Bisglycinate (Ferrochel), Ferrous Bisglycinate] | precipitates in the presence of C10 | – |
| O=C(O)CN(CCN(CC(=O)O)CC(=O)O)CC(=O)O.[Fe+3].[Na+] [sodium EDTA iron chelate, ethylenediaminetetraacetic acid ferric sodium] | – | no gross incompatibility |
| Ferrous Gluconate [Ferrous Gluconate FCC/USP*] | C10 incompatibility | – |
